Values of other authors, collected in patent EP4555997A1, “WATER-SOLUBLE COMPOSITION COMPRISING UROLITHIN” (Science4Beauty Sp. z o.o., priority 2023, dated 2025).

Conditions: HPLC-determined, water at 30° C

solubility in water: less than 0.01 g/L
SMILES: O=c1oc2cc(O)ccc2c2ccc(O)cc12 [UroA, 3,8-dihydroxy-6H-benzo[c]chromen-6-one]
